We go through 8 molecules from patent publication US4130637A, “Anti-plaque agents” (Colgate-Palmolive Company, priority 1977, dated 1978).

Structures are written as SMILES. Where a name gives a salt, the structure may show the parent alone.

The nature of data set [1]: In vivo stain formation test on beagles (oral spray). The arrangement: species or system Beagle dogs. The source says: This treatment was continued daily for 7 weeks. […] Score results range from 0 to 4:
1 stain present covering one-fourth of tooth surface;
2 stain present covering one-half of tooth surface;
3 stain present covering three-fourths of tooth surface;
4 stain present covering entire tooth surface.
(§1) The animals used in these studies were registered Beagle dogs 6 to 8 months of age, weighing 8 to 10 kilos. The animals were kept in good health and had not received any treatment for at least three weeks prior to the start of a study. They were anaesthesized (Na-Nembutal 25-30 mgs/kg) and received a complete dental prophylaxis. Disclosing solution (TRACE, Erythrosine, Lorvic St. Louis, Mo. U.S.A.) was used to insure the complete removal of soft and hard dental deposits. The dogs receive this diet exclusively -- ground Purina Dog Chow soaked in water for at least two hours to form a soft mush. In addition, each animal receives approximately one-half can of ground beef (no chunks). No hard substances were permitted for the duration of the study. The animals were treated once daily with the test solutions (approx. 6 to 9 ml.) using a gentle spray over all surfaces of dentition. Treatments continued at least five days per week for the duration of the experiment. Each animal was examined weekly for plaque, and stain. Photographs were taken by the examining investigator immediately after the prophylaxis and at every examination. Before starting with the plaque study, the groups were balanced with respect to plaque formation.

A short description of data set [2]: In vivo plaque test on beagles (disclosing solution). The arrangement: species or system Beagle dogs. To be noted: for PLAQUE Mean Score: Table II, score 1-4, 20 teeth per beagle, placebo 2.19, benzethonium chloride at .075%; for PLAQUE % Diff.: versus placebo, Signif. printed: 50/50 mixture N.S., 90% betaine 95%, Hibitane 95%, .075% benzethonium chloride 99%.
Source text: as §1, with “The animals were kept in good health and had not received any treatment for at least three weeks prior to the start of a study.” left out

For data set [3], the system named is Staphylococcus aureus. Description: Minimum inhibitory concentration, test tube serial dilution test. In kind it is cell-based. The following applies: S. aureus, Gram Positive. On the procedure: (§2) The antimicrobial nature of the instant novel nontoxic compounds was shown by a standard test tube serial dilution test in which an appropriate number of test tubes of broth containing decreasing concentration of the test agent was innoculated with the test organism (0.1% in 95% ethyl alcohol). After a suitable period of incubation, the tubes were examined for the presence or absence of growth. The activity of the test agent was the lowest concentration which inhibited the growth of the organism and is expressed as the minimal inhibitory concentration in μgm/ml.

The test system of data set [4] is A. niger. Described as above. The following applies: Aspergillus niger, mold. In kind it is cell-based. The protocol: as §2
Data set [5] has as its system E. Coli. The data set is described as above. Type of data set: cell-based. The following applies: Escherichia coli, Gram Negative. The protocol: as §2
Data set [6] has as its system C. albicans. The data set is described as above. In kind it is cell-based. To be noted: Candida albicans, yeast. On the procedure: as §2
Data set [7] relates to Strep. sanguis. The description is as above. The following applies: Streptococcus, Gram Positive. In kind it is cell-based. The protocol:
as §2

Data set [8] has as its system Ps. aeruginosa. Described as above. In kind it is cell-based. To be noted: Pseudomonas aeruginosa, Gram Negative. The protocol: as §2
In data set [9] the test system is Strep. mutans. Described as above. In kind it is cell-based. To be noted: Streptococcus mutans, Gram Positive. The protocol: as §2
The test system of data set [10] is A. naeslundi. The data set is described as above. Type of data set: cell-based, Actinomycetis naeslundii. The following applies: Actinomyces naeslundii, Gram Positive. The protocol: as §2
The test system of data set [11] is T. ment. Described as above. Type of data set: cell-based, Trichophyton mentogrophytes. To be noted: Trichophyton, mold. The protocol:
as §2

Data set [12] deals with bacteria. To be noted: Stedman et al. 1953; cited from earlier work.
Data set [13] deals with micro-organisms. Description: Antimicrobial activity (general statements). Type of data set: cell-based. On the procedure:
as §2, with “μgm/ml. As shown in the following table of anitmicrobial data, the betaines of this invention are active against a variety of micro-organisms with maximum activity when the higher alkyl group has 14-16 carbons.” for “μgm/ml.”

Data set [14] concerns micro-organisms. To be noted: reported by Swain et al. and Stedman et al.; cited from earlier work.
Data set [15] can be described thus: Staining of teeth / oral surfaces (general statements). To be noted: under use conditions. Type of data set: in vivo.

Take `CC(C)(C)CC(C)(C)c1ccc(OCCOCC[N+](C)(C)Cc2ccccc2)cc1` [Benzethonium Chloride, benzethonium chloride]: in data set [1] (0.1% aqueous solution, daily spray, 7 weeks, 10 dogs, score 0-4, deionized water 0.07), the “Mean Stain Result” value is listed as 0.59. In addition, the increase in staining in [1] (0.1% solution, 7 weeks, versus deionized water) was 742%. Moreover, in [1] (Table II, dogs with stain/dogs tested, placebo 1/8, benzethonium chloride at .075%), the “No. of dogs w. Stain” value is listed as 3/7. The “Mean Stain Score” value in data set [1] (Table II, score 0-4, placebo 0.388, benzethonium chloride at .075%) is given as 0.53. Moreover, in data set [2], the “PLAQUE Mean Score” value was found to be 1.80 and the “PLAQUE % Diff.” value is -25.0%.
The term MIC denotes the smallest concentration in the dilution series that meets the test's criterion for growth inhibition. As for `CCCCCCCCCCCC[N+](C)(C)CCCCCCCCCCC(=O)O` [C12 H25 [RN^+ (CH3)2 (CH2)10 COOH] Pr^-], the MIC was determined as 6.25 µg/mL in data set [3]; 50 µg/mL in data set [4]; 100 µg/mL in data set [5]; 25 µg/mL in data set [6]; 12.5 µg/mL in [7]; 50 µg/mL in data set [8]. Further, the MIC in [9], in [10] and in data set [11] was 12.5 µg/mL in each case.
For the molecule `CCCCCCCCCCCCCC[N+](C)(C)CCCCCCCCCCC(=O)[O-]` [C14 H29 RN^+ CH3)2 (CH2)10 COOH, N-(10-Carboxydecyl)-N, N-dimethyltetradecanaminium hydroxide, inner salt], the MIC in data set [3] amounted to 1.56 µg/mL; in [4], 50 µg/mL; in data set [5], 100 µg/mL; in data set [6], 3.12 µg/mL; in [7], 1.56 µg/mL; in data set [8], 100 µg/mL. The MIC in data set [9] came out at 1.56 µg/mL; in data set [10], 0.39 µg/mL; in [11] it was 0.78 µg/mL.
Turning to `CCCCCCCCCCCCCC[N+](C)(C)CCCCCCCCCCC(=O)O.[Br-]` [C14 H29 [RN^+ (CH3)2 (CH2)10 COOH] Pr^-, tetradecyldimethyl(10-carboxydecyl)-ammonium bromide], the MIC in data set [3] came out at 0.39 µg/mL; in data set [4], 25 µg/mL; in data set [5] it was 100 µg/mL; in data set [6], 3.12 µg/mL; in data set [7], 1.56 µg/mL; in [8] it was 50 µg/mL. Further, the minimum inhibitory concentration (MIC) in data set [9] stood at 1.56 µg/mL; in data set [10], 0.39 µg/mL; in data set [11], 3.12 µg/mL.
As for `CCCCCCCCCCCCCCCC[N+](C)(C)CC(=O)[O-]` [C16 H33 N^+ (CH3)2 CH2 COO^-], the “bactericidal activity relative to related non-betaine [C16 H33 N(CH3)2 CH2 C6 H5 ]Cl” value in data set [12] is “less than one-tenth”.
Consider `CCCCCCCCCCCCCCCC[N+](C)(C)CCCCCCCCCCC(=O)[O-]` [C16 H33 RN^+ CH3)2 (CH2)10 COOH, N-(10-Carboxydecyl)-N,N-dimethylhexadecanaminium hydroxide, inner salt], for which the minimal inhibitory concentration (MIC) came to 1.56 µg/mL in data set [3]; 100 µg/mL in data set [4]; 100 µg/mL in [5]; 3.12 µg/mL in [6]; 0.78 µg/mL in [7]; 100 µg/mL in [8]. For the same molecule, the MIC in data set [9] was found to be 1.56 µg/mL; in data set [10] it was 0.78 µg/mL; in data set [11] it was 1.56 µg/mL. Further, in data set [13], the “antimicrobial activity” value is “the activity is not diminished and is sufficient for the exhibition of useful antimicrobial and anti-plaque properties”.
Regarding `CCCCCCCCCCCCCCCC[N+](C)(C)CCCCCCCCCCC(=O)O.[Br-]` [C16 H33 [RN^+ (CH3)2 (CH2)10 COOH] Pr^-, Hexadecyldimethyl(10-carboxydecyl)ammonium bromide], the minimal inhibitory concentration (MIC) came out at 0.39 µg/mL in data set [3]; 50 µg/mL in data set [4]; 100 µg/mL in data set [5]; 3.12 µg/mL in [6]; 1.56 µg/mL in [7]; 50 µg/mL in data set [8]. In addition, the MIC was 1.56 µg/mL in data set [9], 0.78 µg/mL in data set [10] and 12.5 µg/mL in data set [11]. Further, the “antimicrobial properties” value in [14] is listed as “reported to have antimicrobial properties”.
As to `[H]/N=C(\N/C(=N/[H])NCCCCCCNC(=N)NC(=N)Nc1ccc(Cl)cc1)Nc1ccc(Cl)cc1` [Hibitane, Chlorhexidine], in data set [1] (dog, in vivo), the “Mean Stain Score” value was determined as 0.956, the “No. of dogs w. Stain” value is on record as 8/8 and the “degree of staining” value is “significantly increased staining”. Besides, the “staining / discoloration” value in data set [15] is listed as “noticeable discolorations”. For the same molecule, in [2], the “PLAQUE Mean Score” value came to 1.32 and the “PLAQUE % Diff.” value was -39.7%.
